Patent US8350062B2, “Synthesis and anticancer activity of new actin-targeting small-molecule agents” (priority 2009, dated 2013)

Experiments:
[1] = tested on: F-actin in DU145 prostate cancer cell line; assay: F-actin depolymerization in DU145 prostate cancer cell line; format: cell-based, human
Source text: We also examined the ability of 10 to depolymerize F-actin in live cells. The actin cytoskeleton can be readily visualized by fluorescent microscopy following Alexa Fluor 488 phalloidin staining.

PC3 cells = assay: Growth of PC3 cells over 96 h; format: cell-based, human; details: same growth conditions
Protocol: (§1) Cell Viability Assays. All assays were performed using at least three replicate wells for each concentration tested. Original 10-25 mM DMSO stock solution of bistramide A or its analogs was diluted to 100 μM for analogs 4-8, 10 μM for analog 3, 5 μM for analog 2 and 1 μM for bistramide A (1) with F-12K cell culture media supplemented with 10% fetal bovine serum, 100 I.U./ml penicillin, 100 μg/ml streptomycin and 2 mM L-glutamine. Two-fold serial dilutions were performed and used for cell-based assays. A549 cells were grown in 96-well white plates at the density of 1,000 cells per well in 100 μl F-12K cell culture media. Cells were allowed to attach over 24 h and treated with 30 μl of the drug solution and incubated further for 48 h. After incubation, cell viability was determined using luminescence-based commercial kit (CellTiter-Glo, Promega) and luminescence measured using a Wallac Victor 3 plate reader. To measure cell growth inhibition, viability assays were performed twice: at initial time point T0 and after 48 h incubation (T48). Change in the number of viable cells was measured, and GI50 was calculated from sigmoidal plots. For analog 10, growth of A549 and PC3 cells was monitored over 96 h following addition of the drug. 100 μM was the highest concentration tested. At no point did the total DMSO conc. exceed 1%.

filamentous actin = filamentous actin (Oryctolagus cuniculus, UniProt P68135); assay: TIRF microscopy of Oregon green-labeled actin filaments with analog 10; format: biochemical; details: 1.5 μM solution
Protocol: Encouraged by the initially observed potent G-actin binding affinity of 10, we next employed time-lapse total internal reflection fluorescence (TIRF) microscopy to examine the effects of this compound on depolymerization of filamentous actin in vitro. We initially assembled individual actin filaments by elongating them from a pool of 1.0 μM Mg-ATP-actin monomers supplemented with a trace of […] Mg-ATP-actin monomers labeled with Oregon green for visualization. The resulting filaments were incubated with either a solution of buffer or a 1.5 μM solution of 10 and imaged with TIRF microscopy. […] Similar to our previous observations, the mechanism of actin depolymerization by 10 entailed formation of multiple filaments breaks, which in turn created subsequent points for actin disassembly.

HL-60(TB) = assay: NCI 60 cell line single dose screen; format: cell-based, human; details: HL-60(TB) (Leukemia), 10 micromolar, 48 h
G-actin = target: T1, G-actin (Oryctolagus cuniculus, UniProt P68135); assay: Isothermal titration calorimetry, binding to monomeric actin; design: species or system rabbit; details: isothermal titration calorimetry, 25° C.; read-out: Kd
T1 construct: Actin was purified from rabbit muscle acetone powder; tissue Pel-Freez Biologicals (acetone powder); host or cells: rabbit muscle acetone powder
Protocol: Isothermal Titration Calorimetry. A solution of rabbit skeletal muscle actin (5-10 μM) was titrated with bistramide A or its analog (50-100 μM) at 25° C. in buffer containing 2 mM Tris HCl, pH 8.0, 0.2 mM CaCl2, 0.01% NaN3, 0.2 mM ATP, 0.2 mM 2-mercaptoethanol. Dissociation constants were calculated from the binding curve using Origin analytical software (OriginLab) with the binding model involving a single set of identical sites

A549 cells = assay: Cell viability assay (CellTiter-Glo), growth inhibition of A549 cells; format: cell-based, human; details: 24-96 h
Protocol: as §1

[2] = Single dose i.p. toxicity in mice; format: in vivo; details: daily weight and behavior
Protocol: Initially, we established that 10 had no observed toxicity in mice up to 50 mg/kg a single dose administered i.p. Toxicity was assessed by daily weight measurements and mouse behavior compared to non-injected mice. Next, we established tumor xenografts by injecting A549 cells subcutaneously into two groups of nude athymic mice (6 animals per group). The first group was injected only with DMSO control. The second group of animals received three i.p. doses of analog 10 (20 mg/kg) on the 3rd, 5th and 7th day after the initial tumor challenge. Tumor growth was monitored over a period of five weeks. The tumor grew rapidly in the control mice population and reached an average size of 731 mm^3 at the end of 4 weeks. […] The average tumor size for this population was 308 mm^3 after 4 weeks.

COCCC(=O)NC[C@H](O)[C@H](C)C(=O)NCCC[C@H]1O[C@@]2(CCC[C@@H](CC[C@H](C)/C=C(\C)[C@H](C)O)O2)CCC1C (stereo partly shown) [Analog 10]
F-actin depolymerization in DU145 cells [1]: A similar effect of 10 on F-actin depolymerization was also observed | sensitivity of PC3 cells compared with A549 cells (PC3 cells): substantially less sensitive | effect on F-actin filaments (filamentous actin): rapid filament disassembly | Growth Percent (HL-60(TB)): 51.51% | Kd (G-actin): 9 nM | concentration giving complete growth inhibition (A549 cells): 5 µM | dose with no observed toxicity [2]: up to 50 mg/kg
